Laboratory results from US20250084409A1, “COMPOSITIONS AND METHODS FOR CAPPING RNAS” (Verve Therapeutics, Inc., priority 2022, published 2025).
Where two headings read alike, the source gives them in different places.

Tests used:
T7 RNA polymerase [1] = target: T1, T7 RNA polymerase (Escherichia phage T7, UniProt P00573)
T7 RNA polymerase [2] = target: T1, T7 RNA polymerase; assay type: biochemical; conditions: for mRNA full-length purity: ABE mRNA MA004, capillary gel electrophoresis; for amount of full-length mRNA produced: initiator-to-NTP ratio ranging from 1:1 down to 1:5
T7 RNA polymerase [3] = target: T1, T7 RNA polymerase; conditions: for production yield for ABE encoding mRNA: ABE mRNA MA004, IVT with T7 polymerase, 37° C., about 1-4 hours, UV spectrometry; for mRNA production yield: ABE mRNA MA079, 4 mM analog, 90 minutes, UV absorption
RIG-I = RIG-I activation in HEK-Lucia RIG-I reporter cells; assay type: cell-based
Method: (§1) LNPs are prepared and administered in vivo to mice as in Example 11(A,B). Blood is collected at appropriate time points, typically at intervals between 1-48 hours post-dose and terminal end point, and processed to serum or plasma per techniques well known in the art. Serum or plasma cytokine and chemokine levels are measured using V-PLEX cytokine and chemokine detection kits. Cytokine and chemokine levels are compared to animals treated with buffer alone as well as pre-dose sampling of the treatment animals. In some instances, the immune stimulation of capped mRNA is assessed after in vitro transfection to reporter cell lines such as HEK-Lucia RIG-I cell reporter model, which produces luciferase signal in the presence of IFN-stimulated response elements such as uncapped mRNA. This cell model is cultured and transfected as described in Example 7, and luciferase activity is measured using a luciferase activity kit and plate reader. It is known in the art that uncapped mRNA produces a RIG-I-dependent IFN immune response, and capped mRNA lessens this immune stimulation. […] The results of this example were compared using mRNA made with a commercially available 5′ end initiator, 1002a, as a reference.
RIG-I overexpressed reporter HEK293 cells were utilized to evaluate cap specific immune response. mRNA with different cap analogs were transfected to the reporter cells. This cell model is cultured and transfected as described in Example 7. The response was measured at 24 hours after transfection. RIG-I is a cytosolic pattern recognition receptor that is responsible for the type-1 interferon response and can respond to 5′ triphosphate of RNA.

cells = test: Cas9 protein expression in cells (antibody detection); assay type: cell-based; conditions: 6 hours post transfection; low and high doses
Method: Protein expression is directly assessed via antibody detection of the Cas9 protein. The measured signal is compared to that of a recombinant Cas9 of known concentration to derive the Y-axis value. […] This is consistent at both low and high doses at 6 hours post transfection. At 24 hours after transfection, the potency difference between the analogs was less pronounced, but the trend generally remained consistent.

[4] = tested on: TNF-α, IFN-γ, IFN-α, IFN-β, MIP-1B, IP-10, IL-10, IL-6; test: In vivo immunogenicity: serum cytokine and chemokine levels in mice; set-up: species or system mouse; conditions: LNPs 1 mg/kg and 3 mg/kg
Method: as §1
In vivo immunogenicity was quantified as described in Example 12. Mice were treated with LNPs at a level of 1 mg/kg and 3 mg/kg, and serum was collected 3 hours and 24 hours post-injection. […] For comparison, cytokine measurements were also completed for mRNA comprising commercially available 5′ end initiator 1002a.

HeLa lysate = test: Translation of luciferase mRNA in HeLa lysate in vitro translation kit; assay type: biochemical; conditions: luminescence
Method: HeLa cells are cultured in RPMI with 10% FBS at 37° C. under 5% CO2 atmosphere. Cells are plated into an appropriately sized well plate per manufacturer's recommended seeding conditions. After overnight incubation, cells are checked for monolayer formation and then transfected using a transfection agent such as MessengerMAX. Solution A: the desired amount of luciferase mRNA is diluted in OptiMEM and mixed with Solution B: MessengerMAX in OptiMEM. After mixing solutions A and B, the mixture is incubated at room temperature for 20 minutes, and then added dropwise to each well of cells. The cells are then incubated at 37° C. for 12-72 hours to allow for expression of mRNA into protein. Cells are harvested and prepared for measuring luciferase protein levels per Promega luciferase assay system protocol. […] For example, luciferase encoding mRNA with 5′ end region motif, 1007a, was added to a commercially available HeLa lysate in vitro translation kit to produce luciferase protein. Luciferase protein activity as measured by luminescent light production in the presence of a luciferin substrate, was measured with a luminescence-detecting plate reader. Relative light units measured per this assay are proportional to the amount of luciferase protein translated from mRNA. […]

NHP ANGPTL3 = test: In vivo ABE base editing in NHP liver (LNP, NGS); conditions: LNP with sgRNA targeting NHP ANGPTL3 and ABE mRNA, FIG. 8
Method: Lipid nanoparticles (LNPs) are generated by microfluidic mixing using the Precision Nanosystems NanoAssemblr system according to the manufacturer's protocol, with some optimization for individual payloads. The resulting LNPs are filtered using 0.2-micron filters and stored at 4° C. or frozen at −80° C.
LNPs used in these studies were prepared with sgRNA targeting ANGPTL3 and ABE encoding mRNAs with 5′ end region motifs as described in Example 11A, comprising chemically synthesized sgRNAs targeting the NHP ANGPTL3 genes and ABE8.8 mRNA in a 1:1 weight ratio. LNPs were administered to NHP (n=3 per group) by one single intravenous infusion in a total volume of 6 mL/kg. Livers were collected 16 days post dose for NGS measurements of editing efficiency. […]
Paired-end reads are analyzed with the CRISPResso2 pipeline (Clement, K. et al., Nat. Biotech. 2019, 37, 224-226). Briefly, low-quality reads are filtered out, adapter sequences are trimmed from the reads, and the paired-end reads are merged and aligned to the amplicon sequence. The editing percentage is calculated as the number of reads supporting […], over the total number of aligned reads. For ABE, the editing percentage is calculated as the number of reads supporting […], over the total number of aligned reads. […]

[5] = tested on: Primary human hepatocytes; test: Luciferase expression in primary human hepatocytes; assay type: cell-based; conditions: 6 hours after transfection, 106.3 ng of mRNA dose
Description: The harvested cell lysate was subjected to conditions to derive a quantifiable fluorescent signal. This signal was then compared to analog 1002a to determine how structural differences may be related to the changes in expression. Primary human hepatocytes were subjected to two different doses of mRNA encoding for the protein luciferase made using the indicated test analogs. A single RNA molecule may be interpreted by protein synthesis machinery multiple times, so an analog that may increase the frequency of interpretation may be desirable as a 5′ initiator. This frequency of interpretation, or translation efficiency, may be determined by measuring the amount of protein produced in a population of cells exposed to a known amount of RNA at a given point following that exposure. The duration of expression may also be assessed to determine how an analog may sustain the observed expression, as the RNA molecule is eventually decayed within the cell thereby destroying its protein-encoding capacity. […] Similar protein expression profiles was also observed at 24 hours post transfection (FIG. 17b).

T7 polymerase = T7 polymerase (Escherichia phage T7, UniProt P00573); conditions: J. Mol. Biol. (2007) 370, 256-268; read-out: Kd of T7 polymerase for the first initiating guanosine; cited from earlier work
Chain of T7 polymerase (P00573 whole entry): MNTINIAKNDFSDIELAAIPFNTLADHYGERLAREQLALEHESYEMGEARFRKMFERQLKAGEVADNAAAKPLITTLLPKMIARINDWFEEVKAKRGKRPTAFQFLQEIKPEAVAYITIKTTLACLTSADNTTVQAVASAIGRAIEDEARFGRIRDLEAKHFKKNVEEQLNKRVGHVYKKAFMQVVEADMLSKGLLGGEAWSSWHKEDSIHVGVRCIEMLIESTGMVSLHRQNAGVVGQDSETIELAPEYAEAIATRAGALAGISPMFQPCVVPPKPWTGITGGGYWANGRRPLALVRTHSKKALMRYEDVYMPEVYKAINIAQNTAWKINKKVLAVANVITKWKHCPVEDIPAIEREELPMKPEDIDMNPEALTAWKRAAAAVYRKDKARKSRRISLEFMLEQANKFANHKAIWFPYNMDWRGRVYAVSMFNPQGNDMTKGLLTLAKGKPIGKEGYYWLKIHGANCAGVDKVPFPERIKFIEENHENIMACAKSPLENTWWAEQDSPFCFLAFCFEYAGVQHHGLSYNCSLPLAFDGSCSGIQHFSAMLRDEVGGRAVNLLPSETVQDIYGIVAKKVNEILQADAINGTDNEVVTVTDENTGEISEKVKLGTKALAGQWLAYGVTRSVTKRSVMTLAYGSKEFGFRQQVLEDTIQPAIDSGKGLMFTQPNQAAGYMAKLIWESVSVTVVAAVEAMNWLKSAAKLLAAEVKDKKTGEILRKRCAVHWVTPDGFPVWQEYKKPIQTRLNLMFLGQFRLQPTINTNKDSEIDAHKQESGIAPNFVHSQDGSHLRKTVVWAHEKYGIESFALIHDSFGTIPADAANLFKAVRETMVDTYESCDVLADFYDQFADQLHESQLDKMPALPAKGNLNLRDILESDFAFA

[6] = serum 24 hours post-injection, baseline = about pre-injection level

T1 sequence (P00573 whole entry): as above

Compound | mRNA full-length purity (T7 RNA polymerase [2]) | amount of full-length mRNA produced (T7 RNA polymerase [2]) | production yield for ABE encoding mRNA (T7 RNA polymerase [3]) | Cas9 expression (cells) | cytokines (TNF-α, IFN-γ, IFN-α, IFN-β, MIP-1B, IP-10, IL-10, IL-6) ([4]; serum 3 hours post-injection) | cytokines (TNF-α, IFN-γ, IFN-α, IFN-β, MIP-1B, IP-10, IL-10, IL-6) [4, 6] | mRNA production yield (T7 RNA polymerase [3]) | other results
COC1C(OP(=O)(O)OCC2OC(n3cnc4c(=O)[nH]c(N)nc43)C(O)C2O)C(COP(=O)(O)OP(=O)([S-])OP(=O)(O)OCC2OC(n3c[n+](C)c4c(=O)[nH]c(N)nc43)C(O)C2O)OC1n1cnc2c(N)ncnc21 (stereo not drawn) [1107a, m^7G(ppsp) Am(p)G] | about 86% | did not reduce | about 3.3 mg per 1 ml of IVT reaction | – | – | – | – | capping efficiency (T7 RNA polymerase [1]; initiator-to-NTP ratio ranging from 1:1 down to 1:1.67): > 90%
COC1C(OP([O-])(=S)OCC2OC(n3cnc4c(=O)[nH]c(N)nc43)C(O)C2O)C(COP(=O)(O)OP(=O)(O)OP(=O)(O)OCC2OC(n3c[n+](C)c4c(=O)[nH]c(N)nc43)C(O)C2O)OC1n1cnc2c(N)ncnc21 (stereo not drawn) [1007a, m^7G(ppp) Am(ps)G] | about 88% | did not reduce | about 3.3 mg per 1 ml of IVT reaction | largely similar among most analogs except 1007a_D1 and 1007a | detectable | returned to baseline | ~4 mg/mL | RIG-I activity as compared to uncapped mRNA (RIG-I; HEK-Lucia RIG-I cell reporter model, FIG. 9): reduced RIG-I activity; RIG-I activation as a result of the chemical modifications to the cap structure (RIG-I; HEK-Lucia RIG-I cell reporter model, reference 1002a): did not appear to increase RIG-I activation; capping efficiency (T7 RNA polymerase [1]; initiator-to-NTP ratio ranging from 1:1 down to 1:2.5): > 90%; luciferase activity relative to mRNA with initiator 1002a (HeLa lysate): around 2 ×; base editing efficacy compared to mRNAs with 1002a 5′ end region motif (NHP ANGPTL3): lower or similar base editing efficacy
COC1C(OP(=O)(O)OCC2OC(n3cnc4c(=O)[nH]c(N)nc43)C(O)C2O)C(COP(=O)(O)OP(=O)([O-])OP(=O)(O)OCC2OC(n3c[n+](Cc4ccc(Cl)cc4)c4c(=O)[nH]c(N)nc43)C(O)C2O)OC1n1cnc2c(N)ncnc21 (stereo not drawn) [compound 5231, 4-Cl-Bn7G(ppp) Am(p)G] | – | – | – | – | detectable | returned to baseline | slightly lower | –
COC1C(O[P@]([O-])(=S)OCC2OC(n3cnc4c(=O)[nH]c(N)nc43)C(O)C2O)C(COP(=O)(O)OP(=O)(O)OP(=O)(O)OCC2OC(n3c[n+](C)c4c(=O)[nH]c(N)nc43)C(O)C2O)OC1n1cnc2c(N)ncnc21 (stereo partly drawn) [1007a_D2, m^7G(ppp) Am(ps)G] | – | – | – | – | detectable | returned to baseline | ~4 mg/mL | relative luciferase expression [5]: a little increased protein expression
COC1C(O[P@@]([O-])(=S)OCC2OC(n3cnc4c(=O)[nH]c(N)nc43)C(O)C2O)C(COP(=O)(O)OP(=O)(O)OP(=O)(O)OCC2OC(n3c[n+](C)c4c(=O)[nH]c(N)nc43)C(O)C2O)OC1n1cnc2c(N)ncnc21 (stereo partly drawn) [1007a_D1, m^7G(ppp) Am(ps)G] | – | – | – | largely similar among most analogs except 1007a_D1 and 1007a | detectable | returned to baseline | slightly lower | RIG-I response (RIG-I; RIG-I overexpressed reporter HEK293 cells, 24 hours after transfection, FIG. 14): lowest RIG-I response; mRNA full-length purity (FLP) (T7 RNA polymerase [2]; ABE mRNA MA079, 4 mM analog, 90 minutes, electrophoretic separation): 79.4%
Nc1nc2c(ncn2[C@@H]2O[C@H](COP(=O)(O)OP(=O)(O)OP(=O)(O)O)[C@@H](O)[C@H]2O)c(=O)[nH]1 [GTP] | – | – | – | – | – | – | – | Kd (T7 polymerase): 2000 µM
